The source of these data is paper PMC10862543, “Naphthalene Diimide–Tetraazacycloalkane Conjugates Are G-Quadruplex-Based HIV-1 Inhibitors with a Dual Mode of Action” (ACS Infectious Diseases, 2024).

Structures can show the parent of a compound that is named as a salt.

In one data set the test system is T-tropic HIV. To be noted: cited from earlier work.
The test system of another data set is HIV-1 R5 strain (BaL). The data set can be described thus: microbe, parasite or virus in culture. To be noted: TZM-bl; for IC50: Human immunodeficiency virus 1, BAL, R5 strain, MOI 0.3. Type of data set: cell-based. The protocol:
(§1) We next tested the antiviral activity of the NDI–tetraazacycloalkane conjugates in TZM-bl cells. Cells were infected with HIV-1 NL4–3 or BaL, two strains with different cell tropism due to the different coreceptors that are bound by the virus to get access into the cell: HIV-1 NL4–3 exploits the CXCR4 coreceptor (X4 strain), while HIV-1 BaL exploits the CCR5 coreceptor (R5 strain). Compounds were administered at the time of infection or 2 h post infection, and the antiviral activity was evaluated 24 and 48 h post infection. Cytotoxicity was tested in parallel on uninfected cells to assess compound cytotoxicity.
(§2) Cytotoxicity of tested compounds was performed in parallel to antiviral and reporter assays by MTT. […] The selectivity index (SI) is the relative effectiveness of the tested compound in inhibiting viral replication compared to inducing cell death (CC50 value/IC50 value). […] IC50 and CC50 values were calculated by using a nonlinear regression model.
(§3) HIV-1 infectivity was measured using the TZM-bl reporter cell line (obtained through the NIH AIDS Reagent Program, Division of AIDS, NIAID, NIH: TZM-bl cells (catalog no. 8129) from Dr. John C. Kappes, and Dr. Xiaoyun Wu). TZM-bl is a HeLa cell line stably expressing large amounts of CD4 and CCR5, constitutively expressing CXCR4 and containing integrated copies of the luciferase and β-galactosidase genes under the control of the HIV-1 promoter. TZM-bl were grown in DMEM supplemented with 10% FBS. Cells (1 × 10^4 cells/well) were seeded in 96-well plates and grown overnight to permit adherence prior to treatment and viral infection. Cells were next infected with HIV-1 NL4–3 strain or BaL strain at a MOI of respectively 0.5 and 0.3 for 1 h at 37 °C, treated with serial dilutions of tested compounds, and incubated at 37 °C. MOI values had been optimized in previous in-house experiments in order to obtain a well detectable virus release but avoid a virus-induced cytopathic effect. Compounds were reconstituted in DMSO, and dilutions were made in cell medium to maintain the same percentage of DMSO in all dilutions. Untreated cells were treated with the same solvent. After 24 or 48 h, cells were washed with PBS 1× and HIV-1 production was assessed following the LTR-luciferase signal using the britelite plus Reporter Gene Assay System (PerkinElmer, Waltman, MA, USA) according to the manufacturer’s protocol.

The test system of another data set is HIV-1 X4 strain (NL4-3). The data set can be described thus: microbe, parasite or virus in culture. It is filed as cell-based. Conditions: for IC50: Human immunodeficiency virus 1, NL43, TZM-bl, X4 strain, MOI 0.5. The protocol:
as §1, §2, §3

The conditions of data set [1]: stability constant; cited from earlier work.
The next data set has as its system F21T. Type of data set: binding. Conditions: F21T 0.25 μM, compound 0.5 μM, 100 mM KCl. The protocol: (§4) FRET assay was performed with FAM (6-carboxyfluorescein) 5′-end- and Tamra (6-carboxytetramethylrhodamine) 3′-end-labeled oligonucleotides (Table S1). Fluorescence melting curves were determined with a LightCycler II (Roche) real-time PCR machine, using a total reaction volume of 20 μL, with 0.25 μM tagged oligonucleotide in a buffer containing 10 mM lithium cacodylate pH 7.4 with 100 mM KCl, in the presence or absence of 0.5 μM NDI–tetraazacycloalkane conjugate. After a first equilibration step at 30 °C during 2 min, a stepwise increase of 1 °C every minute for 65 cycles to reach 95 °C was performed and measurements were made after each cycle with excitation at 470 nm and detection at 530 nm. Final analysis of the data was carried out using Excel and Sigma Plot software. Oligonucleotides melting was monitored by observing emission of FAM, which was normalized between 0 and 1: Tm was defined as the temperature at which the normalized emission is 0.5. Tm values were mean of 2–3 experiments and ΔTm was calculated as the difference Tm in the presence and absence of the compound.

The subject of a further data set is dsDNA. The data set can be described thus: FRET melting assay, dsDNA control. It is filed as binding. Conditions: dsDNA 0.25 μM, compound 0.5 μM, 100 mM KCl. The protocol: as §4
Data set [2] deals with LTR-IV. Put plainly: FRET melting assay, LTR-IV G4. Type of data set: binding, HIV-1. Conditions: LTR-IV 0.25 μM, compound 0.5 μM, 100 mM KCl. The protocol: as §4
The subject of data set [3] is LTR-IV. Put plainly: CD melting, LTR-IV G4. Conditions: LTR-IV 4 μM, compound 8 μM, 100 mM KCl. It is filed as binding, HIV-1. The protocol:
(§5) All oligonucleotides used in this study were from Sigma-Aldrich (Milan, Italy) (Table S2). For CD analysis, oligonucleotides were diluted to a final concentration of 4 μM in lithium cacodylate buffer (10 mM, pH 7.4) and KCl 100 mM. After the annealing step (95 °C for 5 min), DNA samples were gradually cooled to room temperature and compounds added from stock at final concentration of 8 μM. […] The reported spectrum of each sample represents the average of 2 scans and is baseline-corrected for signal contributions due to the buffer. Observed ellipticities were converted to mean residue ellipticity (θ) = deg × cm^2 × dmol^–1 (mol ellip). For the determination of Tm, spectra were recorded over a temperature range of 20–90 °C, with a temperature increase of 5 °C/min. Tm values were calculated according to the van’t Hoff equation, applied for a two-state transition from a folded to unfolded state, assuming that the heat capacity of the folded and unfolded states are equal.

The nature of data set [4]: MTT cytotoxicity assay on uninfected cells. It is filed as cell-based. To be noted: human, uninfected TZM-bl. The protocol:
(§6) We used TZM-bl cells that are HeLa cells stably expressing large amounts of CD4, CXCR4, and CCR5, thus being highly susceptible to HIV-infection, with integrated luciferase and beta-galactosidase genes under the control of the HIV-1 promoter. We first tested NDI–tetraazacycloalkane conjugates’ cytotoxicity on TZM-bl cells by treating them with increasing amounts of compounds (0.097–25 μM) for 24 and 48 h.
(§7) Cytotoxicity of tested compounds was performed in parallel to antiviral and reporter assays by MTT. […] The selectivity index (SI) is the relative effectiveness of the tested compound in inhibiting viral replication compared to inducing cell death (CC50 value/IC50 value). […]. IC50 and CC50 values were calculated by using a nonlinear regression model.
(In general: Tetrazolium assays rely on reduction of a dye to a coloured formazan, in cell work by metabolically active cells.)

The next data set has as its system TZM-bl cells. The data set can be described thus: MTT cytotoxicity assay on uninfected cells. It is filed as cell-based. Conditions: for CC50: uninfected TZM-bl. The protocol: as §6, §7
For data set [5], the system named is LTR-III. The data set can be described thus: FRET melting assay, LTR-III G4. It is filed as binding, HIV-1. To be noted: LTR-III 0.25 μM, compound 0.5 μM, 100 mM KCl. The protocol:
as §4

Data set [6] relates to LTR-III. The data set can be described thus: CD melting, LTR-III G4. It is filed as binding, HIV-1. Conditions: LTR-III 4 μM, compound 8 μM, 100 mM KCl. The protocol: as §5
The test system of another data set is Tel22. The data set can be described thus: CD melting, telomeric G4 control. Type of data set: binding. Conditions: Tel22 4 μM, compound 8 μM, 100 mM KCl. The protocol: as §5
The next data set relates to HIV-1 X4 strain (NL4–3). The data set can be described thus: Time of addition (TOA) assay, X4 strain. It is filed as cell-based.
Setting [7] is: administration 0 hpi, evaluation 24 hpi.
The mark [8] stands for this setting: administration 2 hpi, evaluation 24 hpi.
Where [9] appears, read: administration 2 hpi, evaluation 48 hpi.

Method for HIV-1 X4 strain (NL4–3): This assay indicates how long the addition of a compound can be postponed before it loses its antiviral activity: comparing the test compounds with reference drugs, whose mechanism is well characterized in the time frame of virus replication, it is possible to determine which viral steps are affected by the test compounds.[56]
Virus production was monitored at 25 h post infection, i.e., at the end of a single round of HIV-1 replication, by exploiting the LTR-driven luciferase reporter system.
25 h post infection HIV-1 production was assessed following the LTR-luciferase signal using the britelite plus Reporter Gene Assay System. The activity of the test compounds was compared with that of untreated infected cells and reference drugs (DS stands for dextran sulfate and NEV stands for nevirapine).
TZM-bl cells (1 × 10^4 cells/well) were seeded in 96-well plates and grown overnight to permit adherence prior to treatment and viral infection. Cells were next infected with HIV-1 NL4–3 or BaL strains (MOI 0.5 and 0.3, respectively) and incubated at 37 °C. […] Following these criteria, we used the highest possible concentrations with the lowest cytotoxicity. After 25 h, cells were washed with PBS 1× and HIV-1 production was assessed following the LTR-luciferase signal using the britelite plus Reporter Gene Assay System (PerkinElmer, Waltman, MA, USA) according to the manufacturer’s protocol.

As for `c1cc(CN2CCCNCCNCCCNCC2)ccc1CN1CCCNCCNCCCNCC1` [AMD3100, 1,1′-[1,4-phenylenebis(methylene)]-bis-1,4,8,11-tetraazacyclotetradecane octahydrochloride dehydrate, reference compound], the “concentration preventing replication of T-tropic HIV (in words)” value in the data set with T-tropic HIV is recorded as “low nanomolar concentrations”. In addition, the “antiviral activity (in words)” value with HIV-1 R5 strain (BaL) (BaL strain, Figure S10) was “inactive”; in the data set on HIV-1 X4 strain (NL4-3) (pNL4.3 strain, TZM-bl, Figure S10), “excellent activity”.

As to `C1CNCCNCCNCCN1` [Cyclen], the “log Ka toward Cu^2+” value in [1] was 23.29.

With `C1CNCCNCCNCCNC1` [[13]aneN4], in data set [1], the “log Ka for Cu^2+” value is given as 24.41.

In general, CC50 refers to the concentration at which the toxic effect on the cells reaches its halfway point. A low value points to greater toxicity to the cells. By IC50 is commonly meant the concentration that gives 50% inhibition. Read a high IC50 as a need for much substance. On to `CN(C)CCCNc1cc2c3c(c(NCCCCCC(=O)OCC4CNCCCNCCNCCN4)cc4c3c1C(=O)N(CCCN(C)C)C4=O)C(=O)N(CCCN(C)C)C2=O` (stereo not shown) [compound 5], for which the “Tm K^+ 100 mM + compound (FRET)” value came to 66.6 ± 0.1 °C in the data set with F21T, 65.0 ± 0.2 °C with dsDNA, 73.9 ± 0.6 °C with LTR-IV [2] and 77.7 ± 0.1 °C with LTR-III [5]. In addition, the “ΔTm (FRET)” value is 2.2 °C in the data set on F21T, 0.8 °C in the data set on dsDNA, 15.2 °C with LTR-IV [2] and 12.5 °C with LTR-III [5]. Moreover, the “Tm K^+ 100 mM + compound (CD)” value in the data set on LTR-IV [3] stood at 71.6 ± 0.4 °C; in the data set with LTR-III [6], 78.6 ± 0.5 °C; in the data set with Tel22, 60.9 ± 0.3 °C. Also, the “ΔTm (CD)” value with LTR-IV [3] is 21.2 °C; with LTR-III [6], 10.4 °C; with Tel22 it was “–5.9 °C”. This compound also had a CC50 at 24 h in data set [4] (parallel to R5, administration 2 hpi, evaluation 24 hpi) above 25 µM. Besides, the CC50 at 48 h in [4] (parallel to X4, administration 0 hpi, evaluation 48 hpi) was above 25 µM. For the same compound, the cytotoxic concentration (CC50) is above 25 µM with TZM-bl cells (parallel to R5, administration 0 hpi, evaluation 24 hpi); above 25 µM in the data set on TZM-bl cells (parallel to R5, administration 0 hpi, evaluation 48 hpi); above 25 µM in the data set with TZM-bl cells (parallel to R5, administration 2 hpi, evaluation 48 hpi); above 25 µM with TZM-bl cells (parallel to X4, administration 0 hpi, evaluation 24 hpi); above 25 µM with TZM-bl cells (parallel to X4, administration 2 hpi, evaluation 24 hpi); above 25 µM with TZM-bl cells (parallel to X4, administration 2 hpi, evaluation 48 hpi). Further, the half-maximal inhibitory concentration (IC50) with HIV-1 R5 strain (BaL) (setting [7]) is above 25 µM; with HIV-1 R5 strain (BaL) (setting [8]), above 25 µM; with HIV-1 R5 strain (BaL) (setting [9]), 16.6 ± 1.33 µM; in the data set on HIV-1 X4 strain (NL4-3) (setting [7]) it was 17.8 ± 0.94 µM; in the data set on HIV-1 X4 strain (NL4-3) (administration 0 hpi, evaluation 48 hpi) it was 1.86 ± 0.49 µM; with HIV-1 X4 strain (NL4-3) (setting [8]), 12.1 ± 1.02 µM. In addition, the IC50 in the data set on HIV-1 X4 strain (NL4-3) (setting [9]) came out at 1.82 ± 0.65 µM.

For the compound `Cc1ccnc2c1NC(=O)c1cccnc1N2C1CC1` [nevirapine], in the data set with HIV-1 X4 strain (NL4–3), the “time post infection up to which the control drug is active” value fell in the range of 3 to 4 h.

For the compound `CN(C)CCCNc1cc2c3c(c(NCCCCCC(=O)O)cc4c3c1C(=O)N(CCCN(C)C)C4=O)C(=O)N(CCCN(C)C)C2=O` [parental NDI], in the data set with TZM-bl cells (TZM-bl, 24 h, Figure S11), the “cytotoxicity (in words)” value is recorded as “highly cytotoxic”.

As for dextran sulfate, the “time post infection up to which the control drug is active” value in the data set on HIV-1 X4 strain (NL4–3) is listed as “active at the time of infection only”.
